Among the data in ChEMBL document CHEMBL4406876, “Design, synthesis and biological research of novel N-phenylbenzamide-4-methylamine acridine derivatives as potential topoisomerase I/II and apoptosis-inducing agents” (Bioorg Med Chem Lett, 2019) are inhibition, Activity and IC50 values, retold here.

The target of assay [1] is DNA topoisomerase II (Homo sapiens) (UniProt P11388+Q02880). Description: Inhibition of DNA topoisomerase-2 (unknown origin) at 100 uM relative to control. Format: protein assay.
For assay [2], the system named is CCRF-CEM. Description: Induction of apoptosis in human CCRF-CEM cells at 0.5 to 2 uM incubated for 48 hrs by Hoechst 33342/PI staining based fluorescence based assay. Format: functional, cell-based.
Assay [3] concerns CCRF-CEM. Description: Induction of apoptosis in human CCRF-CEM cells assessed as increase in early apoptotic cells at 2 uM incubated for 48 hrs by Annexin V-FITC/PI staining based fluorescence based assay. Format: functional, cell-based.
For another assay, the system named is U-937. Description: Antiproliferative against human U937 cells incubated for 72 hrs by MTT assay. As to conditions: U-937, 72 h. Format: functional, cell-based. On the technique in general: Tetrazolium dyes change colour on reduction, which living cells bring about.
Assay [4] relates to CCRF-CEM. Description: Induction of apoptosis in human CCRF-CEM cells assessed as increase in early apoptotic cells at 0.5 uM incubated for 48 hrs by Annexin V-FITC/PI staining based fluorescence based assay. Format: functional, cell-based.
Assay [5] concerns CCRF-CEM. Description: Antiproliferative against human CCRF-CEM cells incubated for 72 hrs by MTT assay. Format: functional, cell-based.
The test system of a further assay is K562. Description: Antiproliferative against human K562 cells incubated for 72 hrs by MTT assay. Format: functional, cell-based. As to conditions: K562, 72 h.
Assay [6] concerns CCRF-CEM. Nature of the assay: Induction of DNA damage in human CCRF-CEM cells assessed as increase in gammaH2AX incubated for 48 hrs by Western blot analysis. Format: functional, cell-based. (In general: A western blot detects proteins with antibodies after separation by electrophoresis.)
Assay [7] deals with T1, DNA topoisomerase 1 (Homo sapiens) (UniProt P11387).
T1 sequence (whole entry): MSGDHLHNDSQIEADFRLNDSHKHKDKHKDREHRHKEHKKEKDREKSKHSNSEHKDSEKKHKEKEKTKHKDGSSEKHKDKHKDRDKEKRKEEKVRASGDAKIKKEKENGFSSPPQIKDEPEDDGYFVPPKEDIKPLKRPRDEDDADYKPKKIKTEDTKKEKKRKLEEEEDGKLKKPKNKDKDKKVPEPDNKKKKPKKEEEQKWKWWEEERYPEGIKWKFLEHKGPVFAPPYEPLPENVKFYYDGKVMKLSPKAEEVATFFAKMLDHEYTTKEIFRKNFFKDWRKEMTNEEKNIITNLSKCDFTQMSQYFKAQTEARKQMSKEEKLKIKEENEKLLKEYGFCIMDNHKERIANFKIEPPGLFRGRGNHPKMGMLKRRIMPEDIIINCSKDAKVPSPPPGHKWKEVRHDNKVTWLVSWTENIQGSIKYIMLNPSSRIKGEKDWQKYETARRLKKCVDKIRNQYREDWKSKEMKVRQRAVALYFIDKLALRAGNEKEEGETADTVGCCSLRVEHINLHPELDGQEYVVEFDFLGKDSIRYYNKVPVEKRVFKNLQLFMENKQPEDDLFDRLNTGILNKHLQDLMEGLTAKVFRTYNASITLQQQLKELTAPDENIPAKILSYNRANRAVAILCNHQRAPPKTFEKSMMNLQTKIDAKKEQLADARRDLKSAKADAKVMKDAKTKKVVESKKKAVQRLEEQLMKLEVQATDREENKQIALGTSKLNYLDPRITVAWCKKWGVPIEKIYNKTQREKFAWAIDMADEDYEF
Nature of the assay: Inhibition of DNA topoisomerase-1 (unknown origin) at 100 uM relative to control.

The subject of assay [8] is CCRF-CEM. Description: Induction of apoptosis in human CCRF-CEM cells assessed as increase in necrotic cells incubated for 48 hrs by Annexin V-FITC/PI staining based fluorescence based assay. Format: functional, cell-based.
The subject of assay [9] is CCRF-CEM. Description: Induction of apoptosis in human CCRF-CEM cells assessed as increase in late apoptotic cells incubated for 48 hrs by Annexin V-FITC/PI staining based fluorescence based assay. Format: functional, cell-based.
Assay [10] deals with CCRF-CEM. Nature of the assay: Induction of apoptosis in human CCRF-CEM cells at 0.5 to 2 uM incubated for 48 hrs by Annexin V-FITC/PI staining based fluorescence based assay. Format: functional, cell-based.

Calls of active or inactive are those of the source. The calls are words filed in the database; no cut-off is given here. Some results are limits rather than exact numbers.

By inhibition is commonly meant the change of the read-out against control, counted positive when it falls. Usually IC50 stands for the midpoint of a concentration-inhibition curve. High values mean weaker potency, low ones greater potency. Regarding `COc1ccc2nc3ccccc3c(NCc3ccc(C(=O)Nc4ccccc4)cc3)c2c1`, the figures for the inhibition in [1] and in assay [7] were 17.8% and 7.2%, respectively. The result in the assay with CCRF-CEM [2], with CCRF-CEM [3] and in the assay on CCRF-CEM [4] was Active. The IC50 came out at 330 nM in the assay on U-937, 820 nM in the assay on CCRF-CEM [5] and 1240 nM in the assay on K562. The Activity entry in the assay on CCRF-CEM [6], in the assay with CCRF-CEM [8] and in the assay with CCRF-CEM [9] was “Dose-dependent effect” in each case.

`NCc1ccc(C(=O)Nc2ccccc2)cc1`: the IC50 with U-937, in the assay with CCRF-CEM [5] and in the assay on K562 was over 10000 nM in each case.

Regarding `O=C(Nc1ccccc1)c1ccc(CNc2c3ccccc3nc3ccccc23)cc1`, the inhibition was determined as 24% in [1] and 44.9% in assay [7]. In addition, the results for the IC50 with U-937, in the assay with CCRF-CEM [5] and in the assay on K562 were 1320 nM, 1560 nM and 1550 nM, respectively. Further, the outcome with CCRF-CEM [10] was Active.

Turning to `COc1ccc2c(NCc3ccc(C(=O)Nc4ccccc4)cc3)c3ccccc3nc2c1`, the figures for the concentration for half-maximal inhibition (IC50) in the assay on U-937, in the assay on CCRF-CEM [5] and in the assay on K562 were 1420 nM, 900 nM and 1320 nM, respectively.

Turning to `COc1cc(NS(C)(=O)=O)ccc1Nc1c2ccccc2nc2ccccc12` [AMSACRINE], the IC50 with U-937 is 80 nM; in the assay on CCRF-CEM [5], 30 nM; in the assay with K562, 710 nM.

As for `COc1cccc2c(NCc3ccc(C(=O)Nc4ccccc4)cc3)c3ccccc3nc12`, the figures for the IC50 with U-937, with CCRF-CEM [5] and in the assay with K562 were 230 nM, 890 nM and 1430 nM, respectively.

In assay [1], `COc1cc([C@@H]2c3cc4c(cc3[C@@H](O[C@@H]3O[C@@H]5CO[C@@H](C)O[C@H]5[C@H](O)[C@H]3O)[C@H]3COC(=O)[C@H]23)OCO4)cc(OC)c1O` had an inhibition of 40.9%.

`COc1ccc2nc3cc(Cl)ccc3c(NCc3ccc(C(=O)Nc4ccccc4)cc3)c2c1`: the half-maximal inhibitory concentration (IC50) in the assay with U-937 stood at 1800 nM; with CCRF-CEM [5], 1300 nM; with K562, 2370 nM.

As for `COc1ccc2nc3cc(Cl)ccc3c(Cl)c2c1`, the IC50 with U-937, in the assay on CCRF-CEM [5] and with K562 was over 10000 nM each time.

As to `COc1ccccc1NC(=O)c1ccc(CNc2c3ccccc3nc3ccccc23)cc1`, the IC50 amounted to 1490 nM with U-937, 1280 nM with CCRF-CEM [5] and 910 nM with K562.
